Results published in ChEMBL document CHEMBL1133500, “Active site binding modes of HIV-1 integrase inhibitors” (J Med Chem, 2000).

Columns and labels:
[1] = Inhibitory activity against ASV (avian sarcoma virus) integrase; Range 40-350 uM
[2] = target: T1, Human immunodeficiency virus type 1 integrase (Human immunodeficiency virus 1, UniProt Q7ZJM1)
[3] = target: T1, Human immunodeficiency virus type 1 integrase; remark: listed apart in the source

T1 sequence (Q7ZJM1 whole entry): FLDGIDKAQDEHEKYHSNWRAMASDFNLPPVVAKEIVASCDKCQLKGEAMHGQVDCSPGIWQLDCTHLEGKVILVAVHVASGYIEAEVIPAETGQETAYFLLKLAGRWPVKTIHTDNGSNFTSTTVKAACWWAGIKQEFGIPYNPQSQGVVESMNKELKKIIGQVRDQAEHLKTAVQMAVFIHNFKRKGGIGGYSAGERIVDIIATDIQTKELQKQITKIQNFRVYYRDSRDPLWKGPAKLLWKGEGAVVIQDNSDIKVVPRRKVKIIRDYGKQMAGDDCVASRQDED

Kd [2] [µM]	IC50 [3] [µM]	Structure (SMILES)	IC50 [1] [µM]
–	–	CC(=O)Nc1cc(S(=O)(=O)O)cc2cc(S(=O)(=O)O)cc(O)c12	< 350
< 15	< 17	O=C1c2ccc(O)c(O)c2C(=O)c2c(O)ccc(O)c21 [QUINALIZARIN]	–
